Data published in PubChem BioAssay AID330 (DTP/NCI, 2004).
Several values for one entry are separate records, joined by “and”; a condition that tells them apart may be missing. Equal entries are not always repeated. Toxic doses and inconclusive results are not listed. Square brackets hold non-standard residues; d marks the D form. Peptide text beside a SMILES is read from it. ξ: configuration not given here. ξA = CC(N)C(=O)O

System: P388 leukemia ip, CD2F1 mice, survival T/C
Assay: NCI In Vivo Anticancer Drug Screen. Data for tumor model P388 Leukemia (intraperitoneal) in CD2F1 (CDF1) mice
Conditions: endpoint: median survival time, higher = longer survival
Method in brief: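 Mice carrying the transplanted tumor received test compound or vehicle. Survival was recorded in each group, and the value is the treated-group measurement divided by that of the vehicle-treated control group.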

[1] = dose: 3.13 mg/kg/injection, schedule: Q01DX009 (ip), vehicle: water
[2] = dose: 6.25 mg/kg/injection, schedule: Q01DX009 (ip), vehicle: water
[3] = dose: 50.0 mg/kg/injection, schedule: Q01DX005 (ip), vehicle: saline with Tween-80
[4] = dose: 100.0 mg/kg/injection, schedule: Q01DX005 (ip), vehicle: saline with Tween-80
[5] = dose: 200.0 mg/kg/injection, schedule: Q01DX005 (ip), vehicle: saline with Tween-80
[6] = dose: 50.0 mg/kg/injection, schedule: Q01DX005 (ip), vehicle: saline
[7] = dose: 100.0 mg/kg/injection, schedule: Q01DX005 (ip), vehicle: saline
[8] = dose: 60.0 mg/kg/injection, schedule: Q01DX005 (ip), vehicle: saline with Tween-80
[9] = dose: 120.0 mg/kg/injection, schedule: Q01DX005 (ip), vehicle: saline with Tween-80
[10] = dose: 240.0 mg/kg/injection, schedule: Q01DX005 (ip), vehicle: saline with Tween-80
[11] = dose: 50.0 mg/kg/injection, schedule: Q01DX009 (ip), vehicle: saline with Tween-80
[12] = dose: 25.0 mg/kg/injection, schedule: Q01DX005 (ip), vehicle: saline with Tween-80
[13] = dose: 12.5 mg/kg/injection, schedule: Q01DX005 (ip), vehicle: saline with Tween-80

COCC[P+](c1ccccc1)(c1ccccc1)c1ccccc1
T/C (dose: 1.56 mg/kg/injection, schedule: Q01DX009 (ip), vehicle: water): 103 % of control | T/C [1]: 99 % of control and 109 % of control | T/C [2]: 112 % of control and 123 % of control | T/C (dose: 12.5 mg/kg/injection, schedule: Q01DX009 (ip), vehicle: water): 123 % of control | T/C (dose: 25.0 mg/kg/injection, schedule: Q01DX009 (ip), vehicle: water): 105 % of control and 119 % of control | T/C (dose: 50.0 mg/kg/injection, schedule: Q01DX009 (ip), vehicle: water): 116 % of control

CC(=O)N(c1ccccc1)C1CCC2(C)C(=CCC3C2CCC2(C)C(C(C)CCCC(C)C)CCC32)C1 (stereo not drawn)
T/C (dose: 100.0 mg/kg/injection, schedule: Q04DX003 (sc), vehicle: steriod suspending solution): 100 % of control | T/C (dose: 200.0 mg/kg/injection, schedule: Q04DX003 (sc), vehicle: steriod suspending solution): 100 % of control | T/C (dose: 400.0 mg/kg/injection, schedule: Q04DX003 (sc), vehicle: steriod suspending solution): 104 % of control

Cc1cc2cc3c(=O)n(C)c(=O)nc-3n(C)c2cc1C
T/C [3]: 92 % of control | T/C [4]: 98 % of control | T/C [5]: 95 % of control

CCN(C(=O)CNCC(C)C)c1ccc(C)c(Cl)c1
T/C [6]: 100 % of control | T/C [7]: 99 % of control

O=C(NC(O)C(Cl)(Cl)Cl)C(Cl)(Cl)Cl (stereo not drawn)
T/C [3]: 100 % of control | T/C [4]: 95 % of control | T/C [5]: 107 % of control

COc1ccc(S(=O)(=O)N/N=C/c2cc([N+](=O)[O-])cc(I)c2O)cc1OC
T/C [8]: 97 % of control | T/C [9]: 94 % of control | T/C [10]: 91 % of control

C=C(C)[C@H]1C[C@@H]2O[C@]2(C)[C@@H](O)C1
T/C (dose: 100.0 mg/kg/injection, schedule: Q04DX002 (ip), vehicle: saline): 94 % of control | T/C (dose: 200.0 mg/kg/injection, schedule: Q04DX002 (ip), vehicle: saline): 102 % of control | T/C (dose: 400.0 mg/kg/injection, schedule: Q04DX002 (ip), vehicle: saline): 96 % of control

CC(C)=NNS(=O)(=O)c1ccc(C)cc1
T/C (dose: 12.5 mg/kg/injection, schedule: Q01DX009 (ip), vehicle: Klucel (hydroxypropylcellulose) (HPC)): 101 % of control | T/C (dose: 25.0 mg/kg/injection, schedule: Q01DX009 (ip), vehicle: Klucel (hydroxypropylcellulose) (HPC)): 93 % of control | T/C (dose: 50.0 mg/kg/injection, schedule: Q01DX009 (ip), vehicle: Klucel (hydroxypropylcellulose) (HPC)): 95 % of control | T/C (dose: 100.0 mg/kg/injection, schedule: Q01DX009 (ip), vehicle: Klucel (hydroxypropylcellulose) (HPC)): 97 % of control | T/C (dose: 200.0 mg/kg/injection, schedule: Q01DX009 (ip), vehicle: Klucel (hydroxypropylcellulose) (HPC)): 88 % of control

O=C(O)c1cccc2nc3cc4c(c(C(=O)O)c3nc12)OCO4
T/C [8]: 93 % of control | T/C [9]: 99 % of control | T/C [10]: 105 % of control

Cc1ncc([N+](=O)[O-])n1CCOc1c(Cl)cc(Cl)cc1CN(C)C1CCCCC1
T/C (dose: 3.12 mg/kg/injection, schedule: Q01DX005 (ip), vehicle: Klucel (hydroxypropylcellulose) (HPC)): 100 % of control | T/C (dose: 6.25 mg/kg/injection, schedule: Q01DX005 (ip), vehicle: Klucel (hydroxypropylcellulose) (HPC)): 98 % of control | T/C (dose: 12.5 mg/kg/injection, schedule: Q01DX005 (ip), vehicle: Klucel (hydroxypropylcellulose) (HPC)): 105 % of control

CC(NC(=O)CNC(=O)CNC(=O)CNC(=O)CN)C(=O)O (stereo not drawn) (H-GGGG[ξA]-OH)
T/C [6]: 100 % of control | T/C [7]: 103 % of control | T/C (dose: 200.0 mg/kg/injection, schedule: Q01DX005 (ip), vehicle: saline): 101 % of control

ClC(Cl)(Cl)C(=NNc1ccccc1)C(Cl)(Cl)Cl
T/C (dose: 15.0 mg/kg/injection, schedule: Q01DX005 (ip), vehicle: saline with Tween-80): 104 % of control | T/C (dose: 30.0 mg/kg/injection, schedule: Q01DX005 (ip), vehicle: saline with Tween-80): 104 % of control | T/C [8]: 105 % of control and 110 % of control

CCCC(O)(CCC)/C(C)=N/O
T/C (dose: 12.5 mg/kg/injection, schedule: Q01DX009 (ip), vehicle: saline with Tween-80): 99 % of control | T/C (dose: 25.0 mg/kg/injection, schedule: Q01DX009 (ip), vehicle: saline with Tween-80): 107 % of control | T/C [11]: 87 % of control and 98 % of control | T/C (dose: 200.0 mg/kg/injection, schedule: Q01DX009 (ip), vehicle: saline with Tween-80): 88 % of control

O=NN(CCCl)C(=O)OCc1ccccc1
T/C (dose: 3.12 mg/kg/injection, schedule: Q01DX001 (ip), vehicle: saline with Tween-80): 101 % of control | T/C (dose: 6.25 mg/kg/injection, schedule: Q01DX001 (ip), vehicle: saline with Tween-80): 100 % of control and 123 % of control | T/C (dose: 12.5 mg/kg/injection, schedule: Q01DX001 (ip), vehicle: saline with Tween-80): 108 % of control and 113 % of control | T/C (dose: 25.0 mg/kg/injection, schedule: Q01DX001 (ip), vehicle: saline with Tween-80): 110 % of control and 123 % of control

O=C(O)c1cc2cccc([N+](=O)[O-])c2[se]1
T/C (dose: 50.0 mg/kg/injection, schedule: Q01DX009 (ip), vehicle: suspension in saline): 106 % of control | T/C (dose: 100.0 mg/kg/injection, schedule: Q01DX009 (ip), vehicle: suspension in saline): 96 % of control | T/C (dose: 200.0 mg/kg/injection, schedule: Q01DX009 (ip), vehicle: suspension in saline): 113 % of control

CC(C)NC(=O)OCc1c(COC(=O)NC(C)C)c(S(C)(=O)=O)n2c1CCC2
T/C [12]: 89 % of control | T/C [3]: 86 % of control | T/C [4]: 88 % of control | T/C [5]: 91 % of control

Cc1c2c(C#N)nccc2c(C)c2c1c1ccccc1n2Cc1ccccc1
T/C (dose: 6.25 mg/kg/injection, schedule: Q04DX003 (ip), vehicle: distilled water + Tween-80): 96 % of control | T/C (dose: 12.5 mg/kg/injection, schedule: Q04DX003 (ip), vehicle: distilled water + Tween-80): 90 % of control | T/C (dose: 25.0 mg/kg/injection, schedule: Q04DX003 (ip), vehicle: distilled water + Tween-80): 87 % of control | T/C (dose: 50.0 mg/kg/injection, schedule: Q04DX003 (ip), vehicle: distilled water + Tween-80): 87 % of control | T/C (dose: 100.0 mg/kg/injection, schedule: Q04DX003 (ip), vehicle: distilled water + Tween-80): 90 % of control | T/C (dose: 200.0 mg/kg/injection, schedule: Q04DX003 (ip), vehicle: distilled water + Tween-80): 91 % of control

Nc1ncc(Cl)c2ccccc12
T/C (dose: 6.25 mg/kg/injection, schedule: Q01DX005 (ip), vehicle: saline with Tween-80): 99 % of control | T/C [13]: 97 % of control | T/C [12]: 89 % of control | T/C [3]: 101 % of control

COc1cccc2c1C(=O)c1c(O)c3c(c(O)c1C2=O)CC(O)CC3OC1CC(N)C(O)C(C)O1 (stereo not drawn)
T/C [1]: 157 % of control | T/C [2]: 173 % of control

COc1ccccc1C1OC(c2ccccc2OC)C2CCN(C)C2(C)O1 (stereo not drawn)
T/C (dose: 100.0 mg/kg/injection, schedule: Q04DX002 (ip), vehicle: saline with Tween-80): 92 % of control | T/C (dose: 200.0 mg/kg/injection, schedule: Q04DX002 (ip), vehicle: saline with Tween-80): 91 % of control | T/C (dose: 400.0 mg/kg/injection, schedule: Q04DX002 (ip), vehicle: saline with Tween-80): 101 % of control

CCC1CCCCN1Cc1ccccc1 (stereo not drawn)
T/C (dose: 60.0 mg/kg/injection, schedule: Q01DX005 (ip), vehicle: Klucel (hydroxypropylcellulose) (HPC)): 108 % of control | T/C (dose: 120.0 mg/kg/injection, schedule: Q01DX005 (ip), vehicle: Klucel (hydroxypropylcellulose) (HPC)): 110 % of control

O=C1CCC([N+](=O)[O-])C(c2ccccc2)N1 (stereo not drawn)
T/C [11]: 100 % of control

N#CC1OC1c1cccnc1 (stereo not drawn)
T/C [13]: 105 % of control and 111 % of control | T/C [12]: 105 % of control and 106 % of control | T/C [3]: 121 % of control

O=c1c(N=Nc2ccccc2)c(C(O)C(O)CO)[nH]n1-c1ccc(Cl)cc1 (stereo not drawn)
T/C (dose: 63.5 mg/kg/injection, schedule: Q01DX001 (ip), vehicle: Klucel (hydroxypropylcellulose) (HPC)): 87 % of control | T/C (dose: 127.0 mg/kg/injection, schedule: Q01DX001 (ip), vehicle: Klucel (hydroxypropylcellulose) (HPC)): 89 % of control | T/C (dose: 254.0 mg/kg/injection, schedule: Q01DX001 (ip), vehicle: Klucel (hydroxypropylcellulose) (HPC)): 100 % of control

CCOC(=O)CNC(=O)Sc1ccc(C(C)(C)C)cc1C
T/C (dose: 50.0 mg/kg/injection, schedule: Q01DX005 (ip), vehicle: saline + Tween-80 + alcohol): 100 % of control (2×) and 107 % of control | T/C (dose: 100.0 mg/kg/injection, schedule: Q01DX005 (ip), vehicle: saline + Tween-80 + alcohol): 110 % of control and 111 % of control and 118 % of control | T/C (dose: 200.0 mg/kg/injection, schedule: Q01DX005 (ip), vehicle: saline + Tween-80 + alcohol): 114 % of control and 120 % of control | T/C (dose: 400.0 mg/kg/injection, schedule: Q01DX005 (ip), vehicle: saline + Tween-80 + alcohol): 114 % of control
